One assay addresses HLA-B1502 (Homo sapiens, UniProt P01889, A329T/A93T/A95T/C349S/D201E/D98Y/E187L/E204Q/E69M/E70A/H137Y/K202T/L119I/Q94N/R155S/R180L/S121R/S35A/S48A/T118I/V306I/V36M/Y140S/Y91S). Briefly: Competitive peptide binding assay, CIR-B1502. Conditions: HMy2.CIR-B1502 cells, reference Cy5-[…], class from inhibition at 5 and 15 μM, flow cytometry MFI; read-out: Binding affinity with HLA-B1502. As for the experimental part:
(§1) Then, competitive peptide binding assays were performed.
For orientation: A flow cytometer gives signals particle by particle.

The target of a further assay is HLA-B4601 (Homo sapiens, UniProt P01889, A329T/A93R/C349S/D201E/E100V/E187L/E204Q/E69M/E70A/I90K/K202T/N87E/R155S/R180W/S121R/S35A/S48A/V306I/V36M/Y140S). Briefly: Competitive peptide binding assay, CIR-B4601. Conditions: for pIC50: HMy2.CIR-B4601 cells, reference Cy5-[…], class from inhibition at 5 and 15 μM, flow cytometry MFI, read-out: Binding affinity with HLA-B4601. As to the method: as §1

The next assay deals with HLA-B1501 (Homo sapiens, UniProt P01889, A329T/A93T/A95T/C349S/D201E/D98Y/E187L/E204Q/E69M/E70A/K202T/N87E/Q94N/R155S/R180W/S121R/S35A/S48A/V306I/V36M/Y140S/Y91S). In words: Competitive peptide binding assay, CIR-B1501. Conditions: HMy2.CIR-B1501 cells, reference Cy5-[…], class from inhibition at 5 and 15 μM, flow cytometry MFI; read-out: Binding affinity with HLA-B1501. As for the experimental part: as §1

For a further assay, the target named is HLA-B3501 (Homo sapiens, UniProt P01889, A329T/A93T/A95T/C349S/D201E/D98Y/E176V/E187L/E204Q/E69T/I218V/K202T/L119I/Q94N/R155S/R180L/S121R/S35A/S48A/T118I/V127L/V306I/V36M/Y140S/Y91F). In words: Competitive peptide binding assay, CIR-B3501. Conditions: HMy2.CIR-B3501 cells, reference Cy5-[…], class from inhibition at 5 and 15 μM, flow cytometry MFI; read-out: Binding affinity with HLA-B3501. As for the experimental part:
as §1

The target in the next assay is HLA-B5801 (Homo sapiens, UniProt P01889, A329T/C349S/D201E/D98Y/E176V/E187L/E204Q/E69T/G107R/I218V/I90N/K202T/L105A/L119I/N104I/N87E/Q89R/Q94S/R106L/R155S/R180L/R86G/S101N/S121R/S35A/S48A/T118I/V127L/V306I/V36M/Y140S/Y91M). In words: Competitive peptide binding assay, CIR-B5801. To be noted: HMy2.CIR-B5801 cells, reference Cy5-[…], class from inhibition at 5 and 15 μM, flow cytometry MFI; read-out: Binding affinity with HLA-B5801. As to the method:
as §1

In another assay the target is HLA-B1301 (Homo sapiens, UniProt P01889, A65T/A93T/A95T/D138N/D201E/D98Y/E176V/E204Q/E69M/E70A/G107R/K202T/L105A/L119I/N104T/N87E/Q94N/R106L/R155S/R169L/R180L/S101N/S121R/S35A/S48T/T118I/V127L/V36M/Y140L/Y91S). In words: Competitive peptide binding assay, CIR-B1301. Conditions: HMy2.CIR-B1301 cells, reference Cy5-[…], class from inhibition at 5 and 15 μM, flow cytometry MFI; read-out: Binding affinity with HLA-B1301. As to the method:
as §1

The next assay addresses T1, HLA-B0702 (Homo sapiens, UniProt P01889).
T1 construct: expressed in transfected cells; host or cells: HMy2.CIR
Briefly: Competitive peptide binding assay, CIR-B0702. Conditions: HMy2.CIR-B0702 cells, reference Cy5-[…], class from inhibition at 5 and 15 μM, flow cytometry MFI. As for the experimental part: as §1

For another assay, the target named is HLA-B1302 (Homo sapiens, UniProt P01889, A65T/A93T/A95T/D138N/D201E/D98Y/E176V/E204Q/E69M/E70A/G107R/K202T/L105A/L119W/N104T/N87E/Q94N/R106L/R155S/R169L/R180L/S101N/S121T/S35A/S48T/V127L/V36M/Y140L/Y91S). In words: Competitive peptide binding assay, CIR-B1302. To be noted: HMy2.CIR-B1302 cells, reference Cy5-MMWYWGPSL, class from inhibition at 5 and 15 μM, flow cytometry MFI; read-out: Binding affinity with HLA-B1302. As to the method:
as §1

A further assay deals with HLA-B4001 (Homo sapiens, UniProt P01889, A65T/A93T/A95T/D138N/D98Y/E176V/E69K/N87E/Q56L/Q94N/R180L/S121R/S35A/S48T/T167S/V36M/W171L/Y33H/Y91S). In words: Competitive peptide binding assay, CIR-B4001. Conditions: HMy2.CIR-B4001 cells, reference Cy5-[…], class from inhibition at 5 and 15 μM, flow cytometry MFI; read-out: Binding affinity with HLA-B4001. As for the experimental part:
as §1

The next assay has as its target HLA-B4403 (Homo sapiens, UniProt P01889, A223V/A65T/A93T/A95T/D201E/D98Y/E176V/E187L/E204Q/E69K/G107R/H137Y/K202T/L105A/L119I/N104T/N87E/Q56L/Q94N/R106L/R155S/R180L/S101N/S121R/S35A/S48T/T118I/V36M/W191S/Y140D/Y91S). Briefly: Competitive peptide binding assay, CIR-B4403. To be noted: HMy2.CIR-B4403 cells, reference Cy5-CYMEAVAL, class from inhibition at 5 and 15 μM, flow cytometry MFI; read-out: Binding affinity with HLA-B4403. As for the experimental part:
as §1

Each structure is given as a SMILES string. pIC50: −log10 of the molar value. Where “and” joins values, the source holds several entries; their conditions need not be identical. Equal entries are not always repeated. Peptide text beside a SMILES is read from it.

With `CSCC[C@H](NC(=O)[C@H](C)NC(=O)[C@@H](N)Cc1ccccc1)C(=O)N[C@@H](CCC(N)=O)C(=O)N[C@@H](CCSC)C(=O)N[C@@H](C)C(=O)N[C@@H](Cc1ccc(O)cc1)C(=O)N[C@@H](CCCNC(=N)N)C(=O)N[C@@H](Cc1ccccc1)C(=O)O` [Epitope Y189], the pIC50 is below 4.82 at HLA-B1502; above 5.30 on HLA-B4601; below 4.82 at HLA-B1501; 4.82 to 5.30 on HLA-B3501; below 4.82 at HLA-B5801; 4.82 to 5.30 at HLA-B1301. The pIC50 on HLA-B0702 was above 5.30. In addition, the inhibition at 5 µM at HLA-B4601 (read-out: Inhibition % of Cy5-reference peptide binding, CIR-B4601, 5μM peptide) came to 74.8%. At HLA-B4601 (read-out: Inhibition % of Cy5-reference peptide binding, CIR-B4601, 15μM peptide), the inhibition at 15 µM turned out to be 92.9%.

As for `CC[C@H](C)[C@H](NC(=O)[C@@H](NC(=O)[C@H](CC(C)C)NC(=O)[C@H](CCC(=O)O)NC(=O)[C@H](CO)NC(=O)[C@H](CCC(=O)O)NC(=O)[C@@H](N)CC(C)C)C(C)C)C(=O)NCC(=O)N[C@@H](C)C(=O)N[C@H](C(=O)O)C(C)C` [Epitope Y211] (H-LESELVIGAV-OH; N-terminus and C-terminus assumed), the pIC50 was below 4.82 at HLA-B1502; below 4.82 at HLA-B4601; 4.82 to 5.30 on HLA-B1501; below 4.82 on HLA-B1302; below 4.82 on HLA-B3501; below 4.82 on HLA-B5801. Also, the pIC50 on HLA-B4001 is 4.82 to 5.30; at HLA-B1301, below 4.82; at HLA-B0702, below 4.82.

For `CC[C@H](C)[C@H](N)C(=O)N[C@@H](C)C(=O)N[C@@H](CCSC)C(=O)N[C@@H](C)C(=O)N[C@@H](CS)C(=O)N[C@@H](CC(C)C)C(=O)N[C@H](C(=O)NCC(=O)N[C@@H](CC(C)C)C(=O)O)C(C)C` [Epitope Y253] (H-IAMACLVGL-OH; N-terminus and C-terminus assumed), the pIC50 was below 4.82 on HLA-B1502; above 5.30 at HLA-B4601; 4.82 to 5.30 on HLA-B4403; below 4.82 at HLA-B1501; 4.82 to 5.30 at HLA-B1302; below 4.82 at HLA-B3501. The pIC50 at HLA-B5801 was below 4.82; on HLA-B1301, 4.82 to 5.30.

Consider `CC(C)C[C@H](NC(=O)[C@H](CC(N)=O)NC(=O)[C@H](CCCCN)NC(=O)[C@@H](NC(=O)[C@H](CCCNC(=N)N)NC(=O)[C@H](CO)NC(=O)[C@H](Cc1ccc(O)cc1)NC(=O)[C@@H](NC(=O)[C@@H](N)Cc1ccc(O)cc1)C(C)C)C(C)C)C(=O)O` [Epitope Y3] (H-YVYSRVKNL-OH; N-terminus and C-terminus assumed), for which the pIC50 at HLA-B4601 is below 4.82; at HLA-B4403, above 5.30; on HLA-B1501, 4.82 to 5.30; on HLA-B1302, below 4.82; at HLA-B3501, below 4.82; at HLA-B1301, below 4.82.

On to `CC[C@H](C)[C@H](NC(=O)[C@H](CC(C)C)NC(=O)[C@H](CCC(N)=O)NC(=O)[C@H](CCC(N)=O)NC(=O)[C@@H](NC(=O)[C@@H](NC(=O)[C@H](Cc1ccc(O)cc1)NC(=O)[C@@H](NC(=O)[C@H](CCC(N)=O)NC(=O)[C@@H](N)CC(C)C)[C@@H](C)O)C(C)C)[C@@H](C)O)C(=O)O` [Epitope Y118] (H-LQTYVTQQLI-OH; N-terminus and C-terminus assumed), for which the pIC50 on HLA-B1502 was below 4.82; on HLA-B4601, below 4.82; on HLA-B4403, 4.82 to 5.30; at HLA-B1302, > 5.30 and 4.82 to 5.30; at HLA-B3501, below 4.82; on HLA-B5801, below 4.82.

On to `CC(C)C[C@H](NC(=O)[C@H](CC(C)C)NC(=O)[C@@H](NC(=O)[C@@H](NC(=O)[C@@H](NC(=O)[C@H](CCC(N)=O)NC(=O)[C@H](CCC(N)=O)NC(=O)[C@H](CCCCN)NC(=O)[C@@H](N)CCCCN)[C@@H](C)O)C(C)C)[C@@H](C)O)C(=O)O` [Epitope Y196] (H-KKQQTVTLL-OH; N-terminus and C-terminus assumed), for which the pIC50 on HLA-B4601 is above 5.30; at HLA-B1501 it was below 4.82; at HLA-B1302 it was 4.82 to 5.30; on HLA-B3501, below 4.82; at HLA-B5801 it was below 4.82; at HLA-B1301 it was below 4.82. The compound also showed a pIC50 on HLA-B0702 below 4.82.

With `CSCC[C@H](NC(=O)[C@H](C)NC(=O)[C@@H]1CCCN1C(=O)[C@H](CC(=O)O)NC(=O)[C@H](C)NC(=O)[C@H](C)NC(=O)[C@H](Cc1ccc(O)cc1)NC(=O)[C@@H](NC(=O)[C@@H](N)CC(C)C)C(C)C)C(=O)O` [Epitope Y165] (H-LVYAADPAM-OH; N-terminus and C-terminus assumed), the pIC50 at HLA-B1502 was 4.82 to 5.30; on HLA-B4601, 4.82 to 5.30; at HLA-B1501, below 4.82; at HLA-B3501 it was above 5.30; on HLA-B5801, below 4.82; on HLA-B4001, below 4.82. The pIC50 on HLA-B1301 and at HLA-B0702 was 4.82 to 5.30 each time.

Regarding `CC[C@H](C)[C@H](NC(=O)[C@H](CCCNC(=N)N)NC(=O)[C@H](CC(C)C)NC(=O)[C@H](CCSC)NC(=O)[C@H](CC(N)=O)NC(=O)[C@@H]1CCCN1C(=O)[C@H](CCSC)NC(=O)[C@H](C)NC(=O)[C@@H](N)CCCNC(=N)N)C(=O)O` [Epitope Y77] (H-RAMPNMLRI-OH; N-terminus and C-terminus assumed), the pIC50 on HLA-B4601 was 4.82 to 5.30; at HLA-B4403, below 4.82; at HLA-B1302, above 5.30; on HLA-B3501 it was below 4.82; on HLA-B5801 it was 4.82 to 5.30; at HLA-B1301, below 4.82.

Consider `CC(C)C[C@H](NC(=O)[C@H](CC(C)C)NC(=O)[C@H](C)NC(=O)[C@H](CCC(N)=O)NC(=O)[C@H](CCCNC(=N)N)NC(=O)[C@@H](NC(=O)[C@H](CCCNC(=N)N)NC(=O)[C@H](CCC(=O)O)NC(=O)CN)C(C)C)C(=O)O` [Epitope Y202] (H-GERVRQALL-OH; N-terminus and C-terminus assumed), for which the pIC50 is below 4.82 on HLA-B1502; 4.82 to 5.30 at HLA-B4601; below 4.82 on HLA-B1501; below 4.82 at HLA-B1302; below 4.82 on HLA-B3501; below 4.82 on HLA-B5801. Further, the pIC50 at HLA-B1301 and at HLA-B0702 was below 4.82 in each case.

One may read the inhibition as the relative decrease from the control value, in per cent.

These data come from article PMC12133982, “Predominant T-cell epitopes of SARS-CoV-2 restricted by multiple prevalent HLA-B and HLA-C allotypes in Northeast Asia” (Frontiers in Immunology, 2025).
